These results are taken from patent publication US9468642B2, “Imidazopyrazines” (BAYER INTELLECTUAL PROPERTY GMBH, priority 2011, dated 2016).

pIC50: −log10 of the molar value.

The target of the assay is human kinase Mps-1 (Homo sapiens (Human), UniProt P33981). Kind of assay: Mps-1 Kinase Assay (TR-FRET). Type of assay: biochemical. To be noted: N-terminally GST-tagged human full length recombinant Mps-1; 10 μM ATP; 1 μM peptide substrate; 60 min at 22° C.; read-out: Mps1 IC50. The protocol: The human kinase Mps-1 phosphorylates a biotinylated substrate peptide. Detection of the phosphorylated product is achieved by time-resolved fluorescence resonance energy transfer (TR-FRET) from Europium-labelled anti-phospho-Serine/Threonine antibody as donor to streptavidin labelled with cross-linked allophycocyanin (SA-XLent) as acceptor. Compounds are tested for their inhibition of the kinase activity.
Sequence of human kinase Mps-1 (P33981 whole entry): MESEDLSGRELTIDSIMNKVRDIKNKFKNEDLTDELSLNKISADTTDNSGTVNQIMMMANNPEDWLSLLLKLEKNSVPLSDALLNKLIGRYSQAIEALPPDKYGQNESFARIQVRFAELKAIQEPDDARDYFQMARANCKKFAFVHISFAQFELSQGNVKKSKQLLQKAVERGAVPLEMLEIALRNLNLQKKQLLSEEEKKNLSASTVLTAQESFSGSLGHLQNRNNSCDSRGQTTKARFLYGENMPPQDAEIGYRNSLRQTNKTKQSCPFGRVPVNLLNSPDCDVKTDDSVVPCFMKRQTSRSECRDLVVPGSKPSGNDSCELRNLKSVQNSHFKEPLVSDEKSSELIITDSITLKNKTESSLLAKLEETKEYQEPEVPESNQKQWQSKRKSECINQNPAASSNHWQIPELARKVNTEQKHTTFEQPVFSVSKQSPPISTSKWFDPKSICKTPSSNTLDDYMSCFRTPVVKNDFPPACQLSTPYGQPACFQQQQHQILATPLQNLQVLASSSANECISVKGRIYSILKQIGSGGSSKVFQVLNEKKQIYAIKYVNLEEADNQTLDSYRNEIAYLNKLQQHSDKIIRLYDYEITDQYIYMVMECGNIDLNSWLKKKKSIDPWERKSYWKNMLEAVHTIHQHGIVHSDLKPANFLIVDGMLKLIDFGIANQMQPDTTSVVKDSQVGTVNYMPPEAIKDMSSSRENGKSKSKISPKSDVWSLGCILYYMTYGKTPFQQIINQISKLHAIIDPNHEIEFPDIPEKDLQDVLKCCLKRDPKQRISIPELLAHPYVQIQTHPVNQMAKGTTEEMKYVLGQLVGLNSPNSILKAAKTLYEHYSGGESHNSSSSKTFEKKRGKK
N-terminally GST-tagged human full length recombinant Mps-1 kinase (purchased from Invitrogen, Karslruhe, Germany, cat. no PV4071) was used. As substrate for the kinase reaction a biotinylated peptide of the amino-acid sequence […] (C-terminus in amide form, purchased from Biosynthan GmbH, Berlin) was used.
The concentration of Mps-1 in the assay was adjusted to the activity of the enzyme lot and was chosen appropriate to have the assay in the linear range, typical enzyme concentrations were in the range of about 1 nM (final conc. in the 5 μl assay volume).
The resulting mixture was incubated 1 h at 22° C. to allow the binding of the phosphorylated peptide to the anti-phospho(Ser/Thr)-Europium-antibody. Subsequently the amount of phosphorylated substrate was evaluated by measurement of the resonance energy transfer from the Europium-labelled anti-phospho(Ser/Thr) antibody to the Streptavidin-XLent.
In general terms: Time-resolved FRET reads energy transfer from a long-lived donor to a nearby acceptor.

Regarding “(1S or 1R)-1-(4-{3-[4-(2-cyclopropyl-1H-imidazol-5-yl)phenyl]-8-(methylsulfanyl)imidazo[1,2-a]pyrazin-6-yl}phenyl)ethanol [Example 34C]”, the pIC50 (in general, the IC50 on a negative log10 scale, so that one unit is a factor of ten) was 7.02. Regarding `CC(C)C[S+]([O-])c1nc(-c2ccccc2)cn2c(-c3ccc(C(=O)NC4CC4)cc3)cnc12` (racemic) [Example 22A, (RS) N-cyclopropyl-4-[8-(isobutylsulfinyl)-6-phenylimidazo[1,2-a]pyrazin-3-yl]benzamide], the pIC50 was 7.90. Consider `CCCCSc1nc(-c2ccccc2)cn2c(-c3ccc(C(=O)NC4CC4)cc3)cnc12` [Example 8, 4-[8-(Butylsulfanyl)-6-phenylimidazo[1,2-a]pyrazin-3-yl]-N-cyclopropylbenzamide], for which the pIC50 was 7.58. The value for `CC(C)(C)CCS(=O)(=O)c1nc(-c2ccccc2)cn2c(-c3ccc(C(=O)NC4CC4)cc3)cnc12` [Example 11B, N-Cyclopropyl-4-{8-[(3,3-dimethylbutyl)sulfonyl]-6-phenylimidazo[1,2-a]pyrazin-3-yl}benzamide] was 8.37; that for `CC(C)CS(=O)(=O)c1nc(-c2ccccc2)cn2c(-c3ccc(C(=O)NC4CC4)cc3)cnc12` [Example 22B, N-cyclopropyl-4-[8-(isobutylsulfonyl)-6-phenylimidazo[1,2-a]pyrazin-3-yl]benzamide] was 8.19; that for `CS(=O)(=O)c1nc(-c2ccccc2)cn2c(-c3ccc(C(=O)NC4CC4)cc3)cnc12` (racemic) [Example 3A, N-Cyclopropyl-4-[8-(methylsulfonyl)-6-phenylimidazo[1,2-a]pyrazin-3-yl]benzamide] was 8.22. Turning to `CC(=O)NCCSc1nc(-c2ccccc2)cn2c(-c3ccc(C(=O)NC4CC4)cc3)cnc12` [Example 33], the pIC50 is 7.70. For `CCS(=O)(=O)c1nc(-c2ccccc2)cn2c(-c3ccc(C(=O)NC4CC4)cc3)cnc12` [Example 5B, N-Cyclopropyl-4-[8-(ethylsulfonyl)-6-phenylimidazo[1,2-a]pyrazin-3-yl]benzamide] the value was 8.11; for `O=C(NC1CC1)c1ccc(-c2cnc3c(S(=O)(=O)Cc4ccco4)nc(-c4ccccc4)cn23)cc1` [Example 28B, N-cyclopropyl-4-{8-[(2-furylmethyl)sulfonyl]-6-phenylimidazo[1,2-a]pyrazin-3-yl}benzamide], 8.15; for `C=Cc1ccc(-c2cn3c(-c4ccc(-c5cnc(C6CC6)[nH]5)cc4)cnc3c(SC)n2)cc1` [Example 30, 3-[4-(2-cyclopropyl-1H-imidazol-5-yl)phenyl]-8-(methylsulfanyl)-6-(4-vinylphenyl)imidazo[1,2-a]pyrazine], 5.51. Regarding `CC(C)CC[S+]([O-])c1nc(-c2ccccc2)cn2c(-c3ccc(C(=O)NC4CC4)cc3)cnc12` (racemic) [Example 24A, (RS) N-cyclopropyl-4-{8-[(3-methylbutyl)sulfinyl]-6-phenylimidazo[1,2-a]pyrazin-3-yl}benzamide], the pIC50 was 7.84. For `CCC[S+]([O-])c1nc(-c2ccccc2)cn2c(-c3ccc(C(=O)NC4CC4)cc3)cnc12` (racemic) [Example 7A, (RS) N-Cyclopropyl-4-[6-phenyl-8-(propylsulfinyl)imidazo[1,2-a]pyrazin-3-yl]benzamide] the value was 7.70.
